Experimental data published in patent US20200375965A1, “Targeting Lipid Metabolism and Free Fatty Acid (FFA) Oxidation to Treat Diseases Mediated by Resident Memory T Cells (TRM)” (The Brigham and Women's Hospital, Inc., priority 2018, published 2020).

What was measured:
[1] = test system: VACV; design: species or system mice; details: mouse, in vivo
[2] = test system: WR-VACV; design: species or system mice; details: mouse, in vivo
[3] = test system: OT-I TRM, TCM and Fabp4/5 dKO TRM; assay: Seahorse Fatty Acid Oxidation (FAO) assay, oxygen-consumption rate; format: cell-based, mouse
Description: Oxidation of exogenous free fatty acids (FFA) was measured using XF Palmitate-BSA FAO substrate with XF cell mito stress kit according to the manufacturer's protocol (Seahorse Bioscience). Freshly isolated and sorted T cells (2.5×10^5) were incubated for 30 min with FAO assay medium (111 mM NaCl, 4.7 mM KCl, 1.25 mM CaCl2), 2.0 mM MgSO4, 1.2 mM Na2HPO4, 2.5 mM glucose, 0.5 mM carnitine and 5 mM HEPES). When required, cells were pre-treated with etomoxir (40 μM) for 15 min. Afterwards, BSA (34 μM) or palmitate-BSA (200 μM palmitate conjugated with 34 μM BSA) was added to the medium, and the oxygen-consumption rate (OCR) was measured under basal conditions and in response to 1 uM oligomycin, 1.5 uM fluorocarbonyl cyanide phenylhydrazone (FCCP), and 100 nM rotenone+1 uM antimycin A. Results were normalized to those of control cells in the presence of BSA.

[4] = test system: TRM mediated contact hypersensitivity (CHS); assay: DNFB contact hypersensitivity (CHS), ear thickness; format: in vivo, C57BL/6 mice; details: etomoxir 1 ug/site, trimetazidine 10 ug/site at challenge with 0.25% DNFB
Description: FIG. 15. […] Effect of FAO inhibition on contact hypersensitivity (CHS) reaction post DNFB re-exposure. DNFB: 20 ul, 0.25% in acetone:olive oil (aOO) (3:1 v/v); Etomoxir (1 ug/site); Trimetazidine (10 ug/site). N=10 mice per group.
C57BL/6 mice were sensitized by topical applications of 20 μl of 0.25% DNFB diluted in acetone olive oil (3:1 v/v) at the indicated time points (day 0, 1 and 7). Challenge was performed at the infection site with 20 μl of DNFB-acetone olive oil (aOO) (0.25%), with or without etomoxir (1 ug/site) and trimetazidine (10 ug/site), at the indicated time points. Then the ear thickness of the mice was measured with a digital thickness gauge (Mitsutoyo) for the following days.

[5] = test system: OT-1 skin TRM; assay: Bodipy FL C16 (Bodipy conjugated palmitate) uptake ex vivo, flow cytometry; format: cell-based, mouse; details: pre-incubation with unlabeled palmitate (100 μM palmitic acid, 10 min, 37° C.); day 30 TRM
Excerpt: The following anti-mouse antibodies were obtained from BD PharMingen: PerCP-conjugated anti-CD3e (553067), PE-conjugated anti-CD8 (557654), PE-Cy7-conjugated anti-CD8 (552877), APC-Cy7-conjugated anti-CD8 (557654), PE-conjugated anti-Thy1.1 (561404), APC-conjugated anti-Thy1.1 (557266), Alexa Fluor 488-conjugated anti-KLRG1 (561619), PE-conjugated anti-integrin α4β7 (553811), PE-Cy7-conjugated anti-CD62L (560516), APC-Cy7-conjugated CD62L (560514), APC-conjugated anti-IFN-γ (554413). Biolegend: Alexa Fluor 488-conjugated anti-CD3e (100321), Alexa Fluor 647-conjugated anti-CD4 (100424), Alexa Fluor 594-conjugated anti-Ep-CAM (118222), FITC-conjugated anti-CD45.1 (110706), PE-conjugated anti-CD45.1 (110708), PE-Cy7-conjugated anti-CD45.2 (109830), APC-conjugated anti-CD45.2 (109814), PE-conjugated anti-CD45.2 (109808), APC-conjugated anti-KLRG1 (138412), PE-conjugated anti-CD44 (103008), PE-Cy7-conjugated anti-CD44 (103030), PE-Cy7-conjugated anti-CD69 (104512), APC-conjugated anti-CD103 (121414), APC-conjugated anti-integrin α4β7 (120608). […] Apoptosis was measured with FITC Annexin V Apoptosis Detection Kit (640922; Biolegend) according to manufacturer's protocol. Flow cytometry data were acquired with a FACS Canto II flow cytometer (BD Biosciences) and data were analyzed with Flowjo software (Tree Star). […]

CCCCCCCCc1ccc(CCC(N)(CO)CO)cc1 [FTY720]
clearing of virus from skin by established OT-I WT TRM ([1]; ip, 1 mg/kg): unaffected
reduced viral clearance by OT-I TRM lacking Fabp4 and Fabp5 ([1]; ip, 1 mg/kg): exaggerated
mortality [2]: 100%
protection from lethality [2]: partially but significantly protected

CCOC(=O)C1(CCCCCCOc2ccc(Cl)cc2)CO1 (stereo not shown) [etomoxir, 2-(6-(4-chlorophenoxy)-hexyl)-oxirane-2-carboxylic acid ethyl ester]
VACV clearing capacity of OT-I WT TRM [1]: reduced
enhanced basal and FCCP-stimulated maximal oxygen-consumption rate (OCR) induced by extracellular fatty acids ([3]; OT-I TRM, pre-treatment with etomoxir 40 μM for 15 min): blocked
cellular respiration (OCR) ([3]; TCM or Fabp4/5 dKO TRM OT-I cells, addition of etomoxir): no effect
contact hypersensitivity (CHS) reaction post DNFB re-exposure [4]: Block

COc1ccc(CN2CCNCC2)c(OC)c1OC [trimetazidine]
contact hypersensitivity (CHS) reaction post DNFB re-exposure [4]: Block

CCCCCCCCCCCCCCCC(=O)O [unlabeled palmitate, palmitic acid]
uptake of extracellular Bodipy conjugated palmitate [5]: blocked
